This note sets out measurements from patent publication US7943358B2, “Polymerase enhancing factor (PEF) extracts, PEF protein complexes, isolated PEF protein, and methods for purifying and identifying” (Agilent Technologies, Inc., priority 1997, dated 2011).

Several values for one entry are separate records, joined by “and”; a condition that tells them apart may be missing. Equal values may be shown once.

Series [1] in a line: Heat treatment of dCTP at 95° C., reverse phase HPLC. It counts as physicochemical. Here is the method:
FIG. 18. Reverse phase HPLC analysis of the products generated by heat-treatment of dCTP. dCTP (10 mM in cloned Pfu DNA polymerase PCR buffer) was heated at 95° C. in thin-walled tubes in a RoboCycler 40 temperature gradient block. Incubations were carried out for the following length of time: 0 (panel A), 1 hour (panel 6), or 4 hours (panel C). 10 μl of the reaction mixtures were loaded onto a Waters Delta-pak C18 column (300 angstrom/15 μm), equilibrated in 50 mM triethylammonium acetate, pH (7.0) (A). Products were eluted with acetonitrile (B) at 2 ml/min., using the following gradient: 0% B for 5 minutes, 0-10% B over 20 minutes. Absorbence of the eluate was monitored with a photodiode array detector, and peak areas were integrated at 260 nm. To the right of panels A and C are shown the same chromatograms re-integrated at a higher sensitivity. In panel D, 10 μl of 10 mM dUTP (in cloned Pfu DNA polymerase PCR buffer) was chromatographed.
dUTP, however, is not intentionally added to PCR reactions but may be generated by spontaneous deamination of dCTP during the high temperatures used in PCR cycling (Jens-Peter Horst and Hans-Joachim Fritz. (1996) The EMBO Journal 15; 5459-5469). To assess the extent of dCTP deamination to dUTP during PCR, we incubated dCTP (10 mM) at 95° C. (PCR denaturation temperature) in the presence of cloned Pfu DNA polymerase PCR buffer. The products of heat treatment were analyzed by reverse phase-HPLC (as described above) and peak assignments were made by comparing retention times to those of standards. […] A minor peak at 12.38 minutes was also produced (0.049%/1 hr.; 0.116%/4 hr.), which was identified as dUTP, based upon its retention time (dUTP standard=12.10 minutes; panel D) and absorbence maximum.

A short description of series [2]: PCR cycling of dCTP alone, HPLC. The format is physicochemical. To be noted: 30 cycles. Here is the method: FIG. 20. Reverse phase HPLC analysis of the products generated by PCR cycling dCTP. dCTP (10 mM in cloned Pfu DNA polymerase PCR buffer) was cycled alone (Panel A) or in the presence of 0.5 ng/μl PEF (Panel 8) or 1.25 U/μl Pfu DNA polymerase (Panel C). Cycling was carried out in a RoboCycler 40 using the following conditions: 95° C. 1 min./30 cycles of: 95° C. 1 min., 60° C. 1 min., 72° C. 10:24 min./72° C. 10 min. 10 μl of the reaction mixtures were chromatographed as described in the FIG. 18 legend. In panel D, the absorbance spectra of dCTP, dUTP, and the product generated from PCR cycling dCTP are compared. The absorbance spectra (200-300 nm) of the following were superimposed: (1) major peak at 8.3-8.8 min. from chromatogram of dCTP+Pfu unheated; (2) peak at 11.867 min. from chromatogram of dUTP in buffer unheated; (3) peak 12.150 from chromatogram C (FIG. 20) showing dCTP+Pfu cycled.
dUTP production was also measured during PCR cycling. A dCTP solution (10 mM dCTP in cloned Pfu DNA polymerase PCR buffer) was subject to PCR cycling in a RoboCycler 40 using the cycling conditions described for the 5.2 kb “on/off” system (example 1). Products generated during PCR were analyzed by HPLC as described above. After 30 cycles, the following products were evident: 79% dCTP, 19% dCDP, 1.8% dCMP, and 0.064% dUTP (FIG. 20, panel A). […] When dCTP was cycled in the presence of Pfu DNA polymerase (50×PCR conditions, 10 mM dCTP and 1.25 U Pfu/μl reaction mix) there was no difference in the amount of dCDP, dCMP, or dUTP produced (FIG. 20, panel C). However, when dCTP was cycled in the presence of PEF (50×PCR conditions, 10 mM dCTP and 0.5 ng PEF/μl reaction mix), the following products were produced: 73% dCTP, 19% dCDP, and 8% dCMP (FIG. 20, panel B).

For series [3], the target named is T1, Pfu DNA polymerase (Pyrococcus furiosus, UniProt P61875).
T1 sequence (P61875 1-775): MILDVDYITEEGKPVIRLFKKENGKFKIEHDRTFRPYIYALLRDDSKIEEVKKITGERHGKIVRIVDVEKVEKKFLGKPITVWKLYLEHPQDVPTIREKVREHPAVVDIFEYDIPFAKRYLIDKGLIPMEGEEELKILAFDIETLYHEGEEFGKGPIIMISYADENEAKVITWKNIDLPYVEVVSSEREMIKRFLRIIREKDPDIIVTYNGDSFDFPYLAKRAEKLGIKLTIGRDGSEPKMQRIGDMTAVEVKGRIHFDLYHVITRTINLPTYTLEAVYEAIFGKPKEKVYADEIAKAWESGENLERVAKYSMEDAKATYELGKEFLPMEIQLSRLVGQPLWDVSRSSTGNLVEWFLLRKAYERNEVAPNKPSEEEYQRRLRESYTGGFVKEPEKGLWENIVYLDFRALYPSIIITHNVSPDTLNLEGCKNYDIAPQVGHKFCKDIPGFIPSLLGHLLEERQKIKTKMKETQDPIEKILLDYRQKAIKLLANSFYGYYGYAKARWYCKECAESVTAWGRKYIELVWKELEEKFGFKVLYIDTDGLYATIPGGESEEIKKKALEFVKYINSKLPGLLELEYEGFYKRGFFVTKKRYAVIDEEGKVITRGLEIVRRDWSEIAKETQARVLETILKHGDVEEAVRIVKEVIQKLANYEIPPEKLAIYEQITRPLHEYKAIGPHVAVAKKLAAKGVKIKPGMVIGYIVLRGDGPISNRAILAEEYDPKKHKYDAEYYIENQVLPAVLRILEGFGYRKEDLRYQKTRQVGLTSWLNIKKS
As to the kind of experiment: 0.9 kb α1-antitrypsin PCR in absence or presence of dUTP. It counts as biochemical. Here is the method:
A relatively small (0.9 kb) fragment of the human α1-antitrypsin gene was amplified in the absence or presence of dUTP. PCR reaction mixtures contained the following (in a 100 μl volume): 1× Cloned Pfu polymerase buffer; 200 μM each, dCTP, dGTP, dATP; 200 ng oligo F91-23 (100 ng/μl); 200 ng oligo R980-23 (100 ng/μl); 125 ng Human genomic DNA; 2.5 units Pfu DNA polymerase; 200 μM total of (dTTP and dUTP) or (dTTP+PEF generated dUMP).
PCR cycling was carried out as follows: 95° C. for 1 minute (1 cycle); 95° C. for 1 minute—58° C. for 1 minute—72° C. for 2 minutes (30 cycles).
Seven ng of PEF can reverse the inhibition caused by as much as 20 μM dUTP (data not shown). The preferred amount of PEF or P45 used in a particular reaction can be optimized according to the principles provided here or by methods for quantifying amplification reactions known in the art.

Series [4] addresses T1, Pfu DNA polymerase. As to the kind of experiment: 0.9 kb α1-antitrypsin PCR with unrelated dU-containing or control oligonucleotide. The format is biochemical. To be noted: per 100 ul reaction.
Series [5] can be described thus: Reverse phase HPLC analysis of dCTP conversion. The format is biochemical. On the procedure: The similarity of P45 to dCTP deaminases prompted us to test whether dCTP or other nucleotide triphosphates were substrates of PEF/P45. PEF was incubated with dCTP or dUTP and the reaction products were separated by reverse phase HPLC. Reaction mixtures (50 μl) containing 1× cloned Pfu polymerase buffer, 10 mM dCTP or dUTP, and 700 ng PEF (or 5 μl of cloned p45 (˜100 ng) or nothing (neg. control)) were incubated at 72° C. for 1 hour. The samples were injected on a […] Waters Delta-pak C-18 column (300 angstrom/15 μm), equilibrated in 50 mM triethylammonium acetate, pH (7.0) (A). Products were eluted with acetonitrile (B) at 2 ml/min. using the following gradient: 0% B for 5 minutes, 0-10% B over 20 minutes. Absorbence of the eluate was monitored with a photodiode array detector, and peak areas were integrated at 260 nm.

In the case of `Nc1ccn([C@H]2C[C@H](O)[C@@H](COP(=O)(O)OP(=O)(O)OP(=O)(O)O)O2)c(=O)n1` [dCTP], in series [1] (1 hr), the “dCMP formed from dCTP” value was 2.8% and the “dUTP formed from dCTP (12.38 minute peak)” value was determined as 0.049%. Moreover, the “dCDP formed from dCTP” value in series [1] (1 hr, 10 mM in cloned Pfu PCR buffer) is listed as 22%. Further, in series [1] (4 hr), the “dCDP formed from dCTP” value is given as 41%, the “dCMP formed from dCTP” value came out at 25% and the “dUTP formed from dCTP (12.38 minute peak)” value is given as 0.116%. Also, in series [2], the “dCDP after PCR cycling” value worked out at 19%, the “dCMP after PCR cycling” value is 1.8%, the “dCTP after PCR cycling” value was 79% and the “dUTP after PCR cycling” value came to 0.064%.
With `O=c1ccn([C@H]2C[C@H](O)[C@@H](COP(=O)(O)O)O2)c(=O)[nH]1` [dUMP], the “inhibition of Pfu polymerase-based PCR” value at Pfu DNA polymerase [3] (at concentrations of 20 μM) is reported as “not inhibitory”.
Regarding `O=c1ccn([C@H]2C[C@H](O)[C@@H](COP(=O)(O)OP(=O)(O)OP(=O)(O)O)O2)c(=O)[nH]1` [dUTP, deoxyuracil triphosphate], the “dUTP concentration partially inhibiting amplification of the 900 bp product” value on Pfu DNA polymerase [3] (0.1% of the dTTP+dUTP pool) came out at 0.2 µM. Further, at Pfu DNA polymerase [3] (as low as, 1% of the dTTP+dUTP pool), the “dUTP concentration completely inhibiting amplification of the 900 bp product” value amounted to 2 µM.
Consider “control oligonucleotide: control oligo with dT rather than dU (SEQ ID NO: 86) (GGTTTTCCCAGTCACGACGTTGTAAAACGACGGCCAGT; DNA, backbone not given here)”, for which the “amount of oligo showing inhibition of the Pfu-based PCR” value in the series with Pfu DNA polymerase [4] is 16 pmol and 8 pmol.
The same measure, in the same setting: with “dU oligo: unrelated primer complementary to M13 DNA containing 9 dUs instead of dTs (SEQ ID NO: 87) (GGUUUUCCCAGUCACGACGUUGUAAAACGACGGCCAGU; DNA, backbone, methylation of C and T or U not given here; further chemistry not fully specified)” the figure was 0.8 pmol.

B1: P45: 45 kD component of the Pfu PEF complex, functions as a dUTPase (SEQ ID NO.: 71) (protein, listed as Pyrococcus furiosus)
chain: MLLPDWKIRKEILIEPFSEESLQPAGYDLRVGREAFVKGKLIDVEKEGKVVIPPREYALILTLERIKLPDDVMGDMKIRSSLAREGVIGSFAWVDPGWDGNLTLMLYNASNEPVELRYGERFVQIAFIRLEGPARNPYRGNYQGSTRLAFSKRKKL
Consider B1, for which the “deamination of dCTP” value in series [5] was “No deamination”.
